Test results published in PubChem BioAssay (NCI).
Where “and” joins values, the source holds several entries; their conditions need not be identical. Equal entries are not always repeated.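 Tested at 5 concentrations; 48 h exposure; 96-well plates; endpoints linearly interpolated, else capped at highest concentration. Here, GI50 denotes the concentration required for 50% inhibition of growth. TGI: concentration producing complete growth inhibition.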

Assays:
Assay in all cases: NCI tumour cell line growth inhibition, 48 h
PC-3 prostate = test system: PC-3 prostate
LXFL 529 NSCLC = test system: LXFL 529 NSCLC
KM20L2 colon = test system: KM20L2 colon
RXF-631 renal = test system: RXF-631 renal
DMS 273 small cell lung = test system: DMS 273 small cell lung
MDA-N = test system: MDA-N
P388 leukemia = test system: P388 leukemia
P388/ADR leukemia = test system: P388/ADR leukemia
SN12K1 renal = test system: SN12K1 renal

Compound	GI50 (PC-3 prostate)	TGI (PC-3 prostate)	TGI (LXFL 529 NSCLC) [µM]	TGI (KM20L2 colon) [µM]	further results
CCNC(=O)c1cc2c(-c3cc(C(C)(C)O)ccc3Oc3c(C)cc(F)cc3C)cn(C)c(=O)c2[nH]1	2.42 µM	13.9 µM			
Nc1nc(-c2ccc(F)cc2)c(-c2ccc3ncccc3n2)s1	13.5 µM	> 25 µM			
CCC1CCc2nc3sc(C(=O)Nc4cccc(F)c4)c(N)c3cc2C1 (stereo unspecified)	> 100 µM	> 100 µM			
COC(=O)C1=C(C)NC(C)=C(C(=O)OC)C1/C=C(Cl)/C=C/c1ccccc1	18.2 µM	38.3 µM			
COc1ccc(OC)c(/C=C(/C)[N+](=O)[O-])c1	2.4 µM	5.63 µM			
COC1OC(COCc2ccc(Cl)cc2)C(OCc2ccc(Cl)cc2)C1N=[N+]=[N-] (stereo unspecified)			> 100	> 100	
Clc1ccc(C2SCc3nc4ccccc4n32)cc1Cl (stereo unspecified)			24		
COc1cc2c3c(c1OC)-c1c(ccc4c1OCO4)CC3(C#N)N(C(=O)c1ccccc1)CC2 (stereo unspecified)			> 100	> 100	TGI (RXF-631 renal): > 100 µM; TGI (DMS 273 small cell lung): > 100 µM
CC(=O)c1ccc(NC(=O)C(=O)Nn2c(=S)[nH]c3ccccc3c2=O)cc1			> 100	> 100	
CC1C[C@@H]2C(=O)NC(=O)[C@@H]2c2c1c1ccccc1n2C (stereo partly specified)			> 100	> 100	TGI (RXF-631 renal): > 100 µM; TGI (DMS 273 small cell lung): > 100 µM
O=C(Nc1nc2ncn(CCNCc3ccccc3)c2c(=O)[nH]1)c1ccccc1			> 100	> 100	TGI (RXF-631 renal): > 100 µM; TGI (DMS 273 small cell lung): > 100 µM
COc1cc(C2=C(C#Cc3ccccc3)COC2=O)cc(OC)c1OC	1.05 µM	20.3 µM			
N#Cc1c(N)nc(N2CCOCC2)c(C#N)c1-c1cccnc1	33.5 µM	> 100 µM			
Cn1ccnc1C(=O)/C=C/c1ccccc1	12.5 µM	37.4 µM			
O=[N+]([O-])c1cccc(C2ON2C2CCCCC2)c1 (stereo unspecified)			45.6	49.3	TGI (DMS 273 small cell lung): 41.5 µM
COC(=O)CCCC(=O)O		> 100 µM			TGI (MDA-N): > 100 µM
CC(=Nc1ccccc1)C1=C(O)C(Cc2ccccc2)NC1=O (stereo unspecified)	0.036 µM	> 100 µM			
Cc1cc(C)nc(NS(=O)(=O)c2ccc(Nc3c4ccc(Cl)cc4nc4c(C(=O)Nc5ccc(S(N)(=O)=O)cc5)cccc34)cc2)n1			> 100	33.1	TGI (RXF-631 renal): 44.2 µM
COC(=O)c1c(N)n[nH]c1N				> 100	TGI (RXF-631 renal): > 100 µM; TGI (DMS 273 small cell lung): > 100 µM
COc1cc(OC)c(/C=C/c2cnc3ccccc3n2)c(OC)c1		> 10 µM			TGI (MDA-N): > 10 µM
O=C1c2ccccc2C(=O)c2c1ccc(C1C(=O)c3ccccc3C1=O)c2-c1c(C2C(=O)c3ccccc3C2=O)ccc2c1C(=O)c1ccccc1C2=O		> 100 µM			TGI (MDA-N): > 100 µM

Compound	GI50 (PC-3 prostate)	TGI (PC-3 prostate)	TGI (LXFL 529 NSCLC) [µM]	TGI (KM20L2 colon) [µM]	further results
CCCCS(=O)(=O)CCC(N)C(=O)O (stereo unspecified)		> 100 µM			TGI (MDA-N): > 100 µM
CCC1CN2CCc3c([nH]c4ccccc34)C2C[C@@H]1CC(=O)N(C)C (stereo partly specified)			> 100	> 100	TGI (DMS 273 small cell lung): > 100 µM
NC(=O)c1ccc2nc(-c3ccc(Oc4ccc(Cl)cc4)cc3)[nH]c2c1	55.3 µM and 11.2 µM	75 µM and 25.5 µM			
CC1(C)[C@@H](O[C@@H]2OC[C@@H](O[C@@H]3O[C@H](CO)[C@@H](O)[C@H](O)[C@H]3O[C@@H]3OC[C@@H](O)[C@H](O)[C@H]3O)[C@H](O)[C@H]2O[C@@H]2O[C@H](CO)[C@@H](O)[C@H](O)[C@H]2O)CC[C@]2(C)[C@H]3CC[C@]45OC[C@@]6(CC[C@](C)(C=O)C[C@H]64)[C@H](O)C[C@@]5(C)[C@]3(C)CC[C@@H]12	0.884 µM	1.78 µM			
CC[C@@H](C(=O)[C@@H](C)[C@@H](O)[C@H](C)[C@@H]1O[C@@H]([C@@H](CC)C(=O)N(CC)CC)CC[C@@H]1C)C1O[C@]2(C=CC(=O)[C@]3(CC[C@@](C)([C@H]4CC[C@](O)(CC)[C@H](C)O4)O3)O2)[C@H](C)C[C@@H]1C (stereo partly specified)	2.6 µM	24.7 µM			
Cc1cc(Cl)ccc1NC(=O)c1cc2ccccc2cc1O	0.875 µM	28.4 µM			
CCCCCCCCCCCC1CCCC(C)N1 (stereo unspecified)	5.57 µM	45 µM		85.9	TGI (P388 leukemia): 23.9 µM; TGI (DMS 273 small cell lung): 136 µM; TGI (P388/ADR leukemia): 54.7 µM; TGI (SN12K1 renal): 86.4 µM
CCOC(=O)C1=C(C)N(c2ccc(C)cc2)C2=C(C(=O)N(c3ccccc3)C2c2ccccc2)C1c1ccccc1 (stereo unspecified)			> 25	> 25	TGI (RXF-631 renal): > 25 µM; TGI (DMS 273 small cell lung): > 25 µM
N#CSCC1CC(O)(c2ccccc2)CC(c2ccc(F)cc2)O1 (stereo unspecified)	2.49 µM	8.38 µM			
O=C(Cn1ccnc1[N+](=O)[O-])c1ccc(F)cc1			> 100	> 100	TGI (DMS 273 small cell lung): > 100 µM
Nc1nc(-c2ccccc2)nc2c1[n+]([O-])c1ccccc1[n+]2[O-]		> 100 µM			
COc1cc2c(cc1Nc1nc(Nc3ccsc3C(N)=O)c3cc[nH]c3n1)N(C(=O)CN(C)C)CCC2(C)C	2.55 µM	7.01 µM			
CCCCCCCCCCCCCP(=O)(O)OCC			> 100	> 100	TGI (RXF-631 renal): > 100 µM
CCc1cccc(C(C)C)c1N1C(=O)C(=O)C(c2nc3ccccc3s2)C(=O)C1=O			> 50	> 50	TGI (DMS 273 small cell lung): > 50 µM
C=C1CCC2C(C)(C)CCC[C@]2(C)[C@H]1CO (stereo partly specified)	65.8 µM	> 100 µM			
Cc1c(COc2cc(OCc3cccc(C#N)c3)c(CN3C[C@H](O)C[C@@H]3C(=O)O)cc2Cl)cccc1-c1ccc2c(c1)OCCO2	2.54 µM	7.7 µM			
Fc1ccccc1C1CC(c2ccc3ccccc3c2)=Nc2ccccc2S1 (stereo unspecified)			> 100	> 100	TGI (DMS 273 small cell lung): > 100 µM
CC1(C)Cc2cc(C(=O)O)c3c(c2C1=O)COCC3			> 100	> 100	TGI (DMS 273 small cell lung): > 100 µM
COc1cc(O)c(C(=O)/C=C/c2ccc(O)cc2)c(O)c1[C@@H]1C[C@H](CCc2ccc(O)cc2)O[C@H](c2ccc(O)cc2)C1	3.37 µM	12.5 µM			
CCCCCCCCCc1cccc(N2C(N)=NC(N)=NC2(C)C)c1		> 35.7 µM			
